Experimental findings from ChEMBL document CHEMBL4507277 are described below.

Test [1] addresses Histamine H2 receptor (Homo sapiens) (UniProt P25021). The following applies: Compound concentration 10.0 uM.
The target of test [2] is Thromboxane-A synthase (Homo sapiens) (UniProt P24557). The following applies: Compound concentration 10.0 uM.

Structures are written as SMILES.

Sequence of Thromboxane-A synthase (Homo sapiens) (P24557 whole entry): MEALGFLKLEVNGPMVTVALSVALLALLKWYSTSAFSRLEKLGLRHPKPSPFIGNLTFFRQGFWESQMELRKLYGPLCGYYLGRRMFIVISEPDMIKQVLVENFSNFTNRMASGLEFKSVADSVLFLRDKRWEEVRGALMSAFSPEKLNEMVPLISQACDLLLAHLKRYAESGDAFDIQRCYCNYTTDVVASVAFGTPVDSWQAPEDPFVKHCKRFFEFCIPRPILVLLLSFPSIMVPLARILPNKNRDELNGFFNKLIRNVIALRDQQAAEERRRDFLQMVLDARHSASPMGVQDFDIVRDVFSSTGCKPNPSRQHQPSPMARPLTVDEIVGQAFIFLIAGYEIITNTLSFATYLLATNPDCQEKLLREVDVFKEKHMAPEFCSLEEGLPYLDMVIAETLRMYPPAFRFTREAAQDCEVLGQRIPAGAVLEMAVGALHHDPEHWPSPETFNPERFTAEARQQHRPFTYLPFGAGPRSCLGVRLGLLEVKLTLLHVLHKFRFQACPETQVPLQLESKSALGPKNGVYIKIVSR
Sequence of Histamine H2 receptor (Homo sapiens) (P25021 whole entry): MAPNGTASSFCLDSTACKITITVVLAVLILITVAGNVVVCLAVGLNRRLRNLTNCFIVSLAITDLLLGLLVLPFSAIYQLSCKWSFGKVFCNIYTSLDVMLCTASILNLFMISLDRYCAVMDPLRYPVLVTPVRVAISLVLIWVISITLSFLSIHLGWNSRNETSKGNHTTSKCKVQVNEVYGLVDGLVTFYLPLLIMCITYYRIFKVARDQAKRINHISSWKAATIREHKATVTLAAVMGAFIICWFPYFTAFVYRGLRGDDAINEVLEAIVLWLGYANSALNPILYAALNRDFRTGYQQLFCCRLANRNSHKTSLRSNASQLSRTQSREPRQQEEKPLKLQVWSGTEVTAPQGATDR

Usually residual activity stands for what remains of the control signal, in per cent. As for `CCS(=O)(=O)c1cc2cc(C[C@](O)(CC(C)(C)c3ccc(F)cc3C(N)=O)C(F)(F)F)[nH]c2cn1`, the residual activity in test [1] is 96%; in test [2], 93%.
